Measured values reported in patent US20210038607A1, “OXADIAZOLYLTHIOPHENE DERIVATIVES USEFUL AS HISTONE DEACETYLASE INHIBITORS” (Karus Therapeutics Limited, priority 2018, published 2021).
Each block holds one compound with its values, some of them ahead of it.

Key:
Recombinant human HDAC6 = target: T1, Recombinant human HDAC6 (Homo sapiens, UniProt Q9UBN7); assay: HDAC6 biochemical assay, AMC-labeled peptide substrate; settings: HDAC6; read-out: HDAC Isoform IC50 (nM) 6
T1 construct: full length, MW=159 kDa; GST (N); host or cells: Sf9 insect cells (baculovirus)
T1 sequence (Q9UBN7 1-1215): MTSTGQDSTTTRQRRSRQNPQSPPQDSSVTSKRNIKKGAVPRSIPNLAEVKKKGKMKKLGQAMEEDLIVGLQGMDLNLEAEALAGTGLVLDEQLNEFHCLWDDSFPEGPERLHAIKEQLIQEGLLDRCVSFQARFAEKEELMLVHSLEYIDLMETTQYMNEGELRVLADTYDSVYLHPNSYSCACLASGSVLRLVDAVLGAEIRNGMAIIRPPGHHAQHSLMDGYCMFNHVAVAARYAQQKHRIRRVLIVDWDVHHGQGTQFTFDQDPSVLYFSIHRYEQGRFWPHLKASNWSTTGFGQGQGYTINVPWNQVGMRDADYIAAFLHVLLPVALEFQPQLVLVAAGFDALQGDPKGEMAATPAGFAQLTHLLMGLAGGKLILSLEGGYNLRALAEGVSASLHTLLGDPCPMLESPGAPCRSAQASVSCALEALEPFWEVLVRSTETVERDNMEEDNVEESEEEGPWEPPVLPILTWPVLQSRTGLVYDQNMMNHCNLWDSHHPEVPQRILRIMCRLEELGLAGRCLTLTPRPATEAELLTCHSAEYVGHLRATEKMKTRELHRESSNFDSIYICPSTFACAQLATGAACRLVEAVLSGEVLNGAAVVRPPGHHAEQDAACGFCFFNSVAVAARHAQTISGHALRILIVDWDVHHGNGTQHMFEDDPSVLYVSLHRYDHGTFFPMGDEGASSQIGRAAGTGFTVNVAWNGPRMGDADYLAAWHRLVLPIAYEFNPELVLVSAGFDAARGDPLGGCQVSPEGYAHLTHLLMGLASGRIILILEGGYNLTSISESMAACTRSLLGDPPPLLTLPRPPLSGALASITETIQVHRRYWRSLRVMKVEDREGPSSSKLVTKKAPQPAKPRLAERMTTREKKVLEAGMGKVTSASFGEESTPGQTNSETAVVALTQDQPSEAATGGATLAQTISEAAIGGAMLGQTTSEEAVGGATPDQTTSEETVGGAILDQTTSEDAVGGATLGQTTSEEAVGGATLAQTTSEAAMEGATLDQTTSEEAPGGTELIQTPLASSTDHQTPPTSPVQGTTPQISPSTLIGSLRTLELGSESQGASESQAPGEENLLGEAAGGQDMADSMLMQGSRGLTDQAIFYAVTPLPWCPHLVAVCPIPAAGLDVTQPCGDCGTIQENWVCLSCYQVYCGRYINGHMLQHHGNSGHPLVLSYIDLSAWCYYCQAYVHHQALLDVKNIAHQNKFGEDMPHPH
In short: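 Two-step fluorogenic read-out: enzyme deacetylates 50 μM RHKK(Ac)AMC for 1 h at 30° C in pH 8.0 Tris buffer with BSA and 1% DMSO, then developer cleavage gives signal at Ex 360/Em 460. Enzyme: 0.3 ng/ul recombinant full-length human HDAC6, GST-tagged, Sf9-expressed.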

Human HDAC9 = target: T2, Human HDAC9 (Homo sapiens, UniProt Q9UKV0); assay: HDAC9 biochemical assay, class IIa-specific substrate; settings: read-out: HDAC Isoform IC50 (nM) 9
T2 construct: amino acids 604-1066 with C-terminal His tag; His (C); host or cells: baculovirus expression system
In short: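 HDAC9 residues 604-1066 (C-terminal His tag, baculovirus-expressed) at 0.06 ng/ul with 50 μM class IIa substrate Boc-Lys(trifluoroacetyl)-AMC in Tris-HCl pH 8.0 buffer with BSA and 1% DMSO. 30 min at room temperature, then developer added; fluorescence read at 360/460 nm Ex/Em.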

Human HDAC4 = target: T3, Human HDAC4 (Homo sapiens, UniProt P56524); assay: HDAC4 biochemical assay, class IIa-specific substrate; settings: read-out: HDAC Isoform IC50 (nM) 4
T3 construct: amino acids 627-1085 with N-terminal GST tag; GST (N); host or cells: baculovirus expression system
In short: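 Two-step fluorogenic read-out: deacetylated BOC-Lys(trifluoroacetyl)-AMC (50 μM) was digested by developer and measured at Ex/Em 360/460. Deacetylation by 0.004 ng/ul HDAC4 (aa 627-1085, N-terminal GST) ran 30 min at room temperature, pH 8.0 Tris buffer, 1 mg/mL BSA, 1% DMSO.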

T3 sequence (P56524 627-1084 limits assumed): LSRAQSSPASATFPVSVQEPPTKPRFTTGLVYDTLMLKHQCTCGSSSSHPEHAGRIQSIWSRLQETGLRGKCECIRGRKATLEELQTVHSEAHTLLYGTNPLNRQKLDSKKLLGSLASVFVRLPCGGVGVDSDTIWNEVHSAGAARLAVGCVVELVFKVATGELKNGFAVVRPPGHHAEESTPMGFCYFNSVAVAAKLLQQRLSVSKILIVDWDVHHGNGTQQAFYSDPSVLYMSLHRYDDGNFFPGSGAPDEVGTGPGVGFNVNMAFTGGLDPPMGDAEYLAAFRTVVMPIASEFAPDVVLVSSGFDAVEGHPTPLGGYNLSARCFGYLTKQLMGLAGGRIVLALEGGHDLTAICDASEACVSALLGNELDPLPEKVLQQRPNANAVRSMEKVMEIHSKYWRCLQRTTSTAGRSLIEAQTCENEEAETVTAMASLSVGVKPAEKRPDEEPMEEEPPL
T2 sequence (Q9UKV0 604-1066 isoform Q9UKV0-5): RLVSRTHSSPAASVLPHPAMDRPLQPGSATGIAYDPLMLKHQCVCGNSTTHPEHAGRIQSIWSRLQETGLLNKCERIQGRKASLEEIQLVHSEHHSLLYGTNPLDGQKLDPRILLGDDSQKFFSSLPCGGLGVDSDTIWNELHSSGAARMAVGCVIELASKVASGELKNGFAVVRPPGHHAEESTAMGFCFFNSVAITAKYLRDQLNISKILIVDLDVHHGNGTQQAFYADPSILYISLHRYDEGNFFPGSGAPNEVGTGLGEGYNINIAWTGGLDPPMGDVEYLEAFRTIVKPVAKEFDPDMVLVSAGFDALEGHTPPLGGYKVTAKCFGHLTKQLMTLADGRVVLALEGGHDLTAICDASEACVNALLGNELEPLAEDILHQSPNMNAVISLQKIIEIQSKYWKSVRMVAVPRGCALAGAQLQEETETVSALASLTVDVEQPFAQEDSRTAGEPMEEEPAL

SMILES: O=C(c1cnnc(N(Cc2ccc(-c3noc(C(F)(F)F)n3)s2)c2cnccn2)c1)N1CCS(=O)(=O)CC1 [Example ED, 4-{6-[(Pyrazin-2-yl)({5-[5-(trifluoromethyl)-1,2,4-oxadiazol-3-yl]thiophen-2-yl}methyl)amino]pyridazine-4-carbonyl}-1λ^6-thiomorpholine-1,1-dione]
IC50 (Recombinant human HDAC6): ≤ 500 nM | IC50 (Human HDAC9): ≤ 10000 nM | IC50 (Human HDAC4): ≤ 10000 nM

SMILES: O=C(c1nccnc1N(Cc1ccc(-c2noc(C(F)(F)F)n2)s1)c1cnccn1)N1CCC1 [Example GP, 3-(Azetidine-1-carbonyl)-N-(pyrazin-2-yl)-N-({5-[5-(trifluoromethyl)-1,2,4-oxadiazol-3-yl]thiophen-2-yl}methyl)pyrazin-2-amine]
IC50 (Recombinant human HDAC6): ≤ 1000 nM | IC50 (Human HDAC9): ≤ 10000 nM | IC50 (Human HDAC4): ≤ 10000 nM

SMILES: CC(C)(O)c1cnnc(N(Cc2ccc(-c3noc(C(F)(F)F)n3)s2)c2cnccn2)c1 [Example GS, 2-{6-[(Pyrazin-2-yl)({5-[5-(trifluoromethyl)-1,2,4-oxadiazol-3-yl]thiophen-2-yl}methyl)amino]pyridazin-4-yl}propan-2-ol]
IC50 (Recombinant human HDAC6): ≤ 500 nM | IC50 (Human HDAC9): ≤ 10000 nM | IC50 (Human HDAC4): ≤ 1000 nM

SMILES: COc1cncc(N(Cc2ccc(-c3noc(C(F)(F)F)n3)s2)c2cc(C(F)(F)F)cnn2)n1 [Example EN, N-(6-Methoxypyrazin-2-yl)-5-(trifluoromethyl)-N-({5-[5-(trifluoromethyl)-1,2,4-oxadiazol-3-yl]thiophen-2-yl}methyl)pyridazin-3-amine]
IC50 (Recombinant human HDAC6): ≤ 500 nM | IC50 (Human HDAC9): > 10000 nM | IC50 (Human HDAC4): ≤ 10000 nM

SMILES: COC1CN(C(=O)c2cnnc(N(Cc3ccc(-c4noc(C(F)(F)F)n4)s3)c3cnccn3)c2)C1 [Example DZ, 5-(3-Methoxyazetidine-1-carbonyl)-N-(pyrazin-2-yl)-N-({5-[5-(trifluoromethyl)-1,2,4-oxadiazol-3-yl]thiophen-2-yl}methyl)pyridazin-3-amine]
IC50 (Recombinant human HDAC6): ≤ 500 nM | IC50 (Human HDAC9): ≤ 10000 nM | IC50 (Human HDAC4): ≤ 10000 nM

SMILES: FC(F)(F)c1nc(-c2ccc(CN(c3ccccn3)c3ccccn3)s2)no1 [Example U, N-(Pyridin-2-yl)-N-({5-[5-(trifluoromethyl)-1,2,4-oxadiazol-3-yl]thiophen-2-yl}methyl)pyridin-2-amine]
IC50 (Recombinant human HDAC6): ≤ 1000 nM | IC50 (Human HDAC9): ≤ 10000 nM | IC50 (Human HDAC4): ≤ 10000 nM

SMILES: FC(F)(F)c1nc(-c2ccc(CN(c3cnccn3)c3ccc(CN4CCOCC4)nn3)s2)no1 [Example FN, 6-[(Morpholin-4-yl)methyl]-N-(pyrazin-2-yl)-N-({5-[5-(trifluoromethyl)-1,2,4-oxadiazol-3-yl]thiophen-2-yl}methyl)pyridazin-3-amine]
IC50 (Recombinant human HDAC6): ≤ 500 nM | IC50 (Human HDAC9): ≤ 10000 nM | IC50 (Human HDAC4): ≤ 1000 nM

Next, values leading:

IC50 (Recombinant human HDAC6): ≤ 1000 nM | IC50 (Human HDAC9): ≤ 10000 nM | IC50 (Human HDAC4): ≤ 10000 nM
SMILES: NC(=O)c1nccnc1N(Cc1ccc(-c2noc(C(F)(F)F)n2)s1)c1cnccn1 [Example GO, 3-[(Pyrazin-2-yl)({5-[5-(trifluoromethyl)-1,2,4-oxadiazol-3-yl]thiophen-2-yl}methyl)amino]pyrazine-2-carboxamide]

IC50 (Recombinant human HDAC6): ≤ 500 nM | IC50 (Human HDAC9): ≤ 10000 nM | IC50 (Human HDAC4): ≤ 10000 nM
SMILES: CN1CCN(C(=O)c2cnnc(N(Cc3ccc(-c4noc(C(F)(F)F)n4)s3)c3cnccn3)c2)CC1 [Example EC, 5-(4-Methylpiperazine-1-carbonyl)-N-(pyrazin-2-yl)-N-({5-[5-(trifluoromethyl)-1,2,4-oxadiazol-3-yl]thiophen-2-yl}methyl)pyridazin-3-amine]

IC50 (Recombinant human HDAC6): ≤ 1000 nM | IC50 (Human HDAC9): ≤ 10000 nM | IC50 (Human HDAC4): ≤ 10000 nM
SMILES: COc1cnc(N(Cc2ccc(-c3noc(C(F)(F)F)n3)s2)c2cnccn2)cn1 [Example BI, 5-Methoxy-N-(pyrazin-2-yl)-N-({5-[5-(trifluoromethyl)-1,2,4-oxadiazol-3-yl]thiophen-2-yl}methyl)pyrazin-2-amine]

IC50 (Recombinant human HDAC6): ≤ 1000 nM | IC50 (Human HDAC9): ≤ 10000 nM | IC50 (Human HDAC4): ≤ 10000 nM
SMILES: FC(F)(F)c1nc(-c2ccc(CN(c3cnccn3)c3ncccn3)s2)no1 [Example AS, N-(Pyrimidin-2-yl)-N-({5-[5-(trifluoromethyl)-1,2,4-oxadiazol-3-yl]thiophen-2-yl}methyl)pyrazin-2-amine]

IC50 (Recombinant human HDAC6): ≤ 500 nM | IC50 (Human HDAC9): ≤ 1000 nM | IC50 (Human HDAC4): ≤ 500 nM
SMILES: O=C(c1ccc(N(Cc2ccc(-c3noc(C(F)(F)F)n3)s2)c2cnccn2)nn1)N1CCCC1 [Example FI, N-(Pyrazin-2-yl)-6-(pyrrolidine-1-carbonyl)-N-({5-[5-(trifluoromethyl)-1,2,4-oxadiazol-3-yl]thiophen-2-yl}methyl)pyridazin-3-amine]

IC50 (Recombinant human HDAC6): ≤ 500 nM | IC50 (Human HDAC9): ≤ 10000 nM | IC50 (Human HDAC4): ≤ 10000 nM
SMILES: O=C(c1cnnc(N(Cc2ccc(-c3noc(C(F)(F)F)n3)s2)c2cnccn2)c1)N1C[C@H]2C[C@@H]1CO2 [Example FW, 5-[(1R,4R)-2-Oxa-5-azabicyclo[2.2.1]heptane-5-carbonyl]-N-(pyrazin-2-yl)-N-({5-[5-(trifluoromethyl)-1,2,4-oxadiazol-3-yl]thiophen-2-yl}methyl)pyridazin-3-amine]

IC50 (Recombinant human HDAC6): ≤ 500 nM | IC50 (Human HDAC9): ≤ 10000 nM | IC50 (Human HDAC4): ≤ 1000 nM
SMILES: O=C(c1cnnc(N(Cc2ccc(-c3noc(C(F)(F)F)n3)s2)c2cnccn2)c1)N1CC(C(F)(F)F)C1 [Example GJ, N-(Pyrazin-2-yl)-N-({5-[5-(trifluoromethyl)-1,2,4-oxadiazol-3-yl]thiophen-2-yl}methyl)-5-[3-(trifluoromethyl)azetidine-1-carbonyl]pyridazin-3-amine]

IC50 (Recombinant human HDAC6): ≤ 500 nM | IC50 (Human HDAC9): ≤ 10000 nM | IC50 (Human HDAC4): ≤ 10000 nM
SMILES: FC(F)(F)c1nc(-c2ccc(CN(c3cnccn3)c3cc(-c4ccccn4)cnn3)s2)no1 [Example GM, N-(Pyrazin-2-yl)-5-(pyridin-2-yl)-N-({5-[5-(trifluoromethyl)-1,2,4-oxadiazol-3-yl]thiophen-2-yl}methyl)pyridazin-3-amine]
